Source: publication PMC5392334, “Discovery and characterization of a novel irreversible EGFR mutants selective and potent kinase inhibitor CHMFL-EGFR-26 with a distinct binding mode” (Oncotarget, 2017)

How the values were obtained:
[1] = molecular target: T1, GRK2 (Homo sapiens, UniProt P25098); test: KinomeScan; type: binding; conditions: read-out: % control
T1 construct: purchased DiscoveRx KINOMEscan

[2] = molecular target: T2, MLK1 (Homo sapiens, UniProt P80192); test: KinomeScan; type: binding; conditions: read-out: % control
T2 construct: purchased DiscoveRx KINOMEscan

[3] = molecular target: T3, ERN1 (Homo sapiens, UniProt O75460); test: KinomeScan; type: binding; conditions: read-out: % control
T3 construct: purchased DiscoveRx KINOMEscan

[4] = molecular target: T4, CAMK1G (Homo sapiens, UniProt Q96NX5); test: KinomeScan; type: binding; conditions: read-out: % control
T4 construct: purchased DiscoveRx KINOMEscan

[5] = molecular target: T5, CDC2L2 (Homo sapiens, UniProt Q9UQ88); test: KinomeScan; type: binding; conditions: read-out: % control
T5 construct: purchased DiscoveRx KINOMEscan

[6] = molecular target: T6, TRKB (Homo sapiens, UniProt Q16620); test: KinomeScan; type: binding; conditions: read-out: % control
T6 construct: purchased DiscoveRx KINOMEscan

[7] = molecular target: T7, AURKB (Homo sapiens, UniProt Q96GD4); test: KinomeScan; type: binding; conditions: read-out: % control
T7 construct: purchased DiscoveRx KINOMEscan

[8] = molecular target: T8, BRAF(V600E) (Homo sapiens, UniProt P15056, V600E); test: KinomeScan; type: binding; conditions: read-out: % control
T8 construct: purchased DiscoveRx KINOMEscan

[9] = molecular target: T9, KIT(V559D) (Homo sapiens, UniProt P10721, V559D); test: KinomeScan; type: binding; conditions: read-out: % control
T9 construct: purchased DiscoveRx KINOMEscan

[10] = molecular target: T10, RPS6KA4(Kin.Dom.1-N-terminal) (Homo sapiens, UniProt O75676); test: KinomeScan; type: binding; conditions: read-out: % control
T10 construct: RPS6KA4(Kin.Dom.1-N-terminal); purchased DiscoveRx KINOMEscan

[11] = molecular target: T11, NEK5 (Homo sapiens, UniProt Q6P3R8); test: KinomeScan; type: binding; conditions: read-out: % control
T11 construct: purchased DiscoveRx KINOMEscan

[12] = molecular target: T12, CSNK1G1 (Homo sapiens, UniProt Q9HCP0); test: KinomeScan; type: binding; conditions: read-out: % control
T12 construct: purchased DiscoveRx KINOMEscan

[13] = molecular target: T13, PRKR (Homo sapiens, UniProt P19525); test: KinomeScan; type: binding; conditions: read-out: % control
T13 construct: purchased DiscoveRx KINOMEscan

[14] = molecular target: T14, FGFR4 (Homo sapiens, UniProt P22455); test: KinomeScan; type: binding; conditions: read-out: % control
T14 construct: purchased DiscoveRx KINOMEscan

[15] = molecular target: T15, PKAC-alpha (Homo sapiens, UniProt P17612); test: KinomeScan; type: binding; conditions: read-out: % control
T15 construct: purchased DiscoveRx KINOMEscan

[16] = molecular target: T16, MUSK (Homo sapiens, UniProt O15146); test: KinomeScan; type: binding; conditions: read-out: % control
T16 construct: purchased DiscoveRx KINOMEscan

[17] = molecular target: T17, PAK2 (Homo sapiens, UniProt Q13177); test: KinomeScan; type: binding; conditions: read-out: % control
T17 construct: purchased DiscoveRx KINOMEscan

[18] = molecular target: T18, LATS2 (Homo sapiens, UniProt Q9NRM7); test: KinomeScan; type: binding; conditions: read-out: % control
T18 construct: purchased DiscoveRx KINOMEscan

[19] = molecular target: T19, NIM1 (Homo sapiens, UniProt Q8IY84); test: KinomeScan; type: binding; conditions: read-out: % control
T19 construct: purchased DiscoveRx KINOMEscan

[20] = system: BaF3-INSR; test: Anti-proliferative effects, INSR transformed isogenic BaF3 cells; type: cell-based; conditions: Mus musculus, read-out: IC50 (anti-proliferative; GI50)
[21] = molecular target: T20, CAMK2G (Homo sapiens, UniProt Q13555); test: KinomeScan; type: binding; conditions: read-out: % control
T20 construct: purchased DiscoveRx KINOMEscan

[22] = molecular target: T21, ABL1-phosphorylated (Homo sapiens, UniProt P00519); test: KinomeScan; type: binding; conditions: read-out: % control
T21 construct: purchased DiscoveRx KINOMEscan

[23] = molecular target: T22, PHKG1 (Homo sapiens, UniProt Q16816); test: KinomeScan; type: binding; conditions: read-out: % control
T22 construct: purchased DiscoveRx KINOMEscan

[24] = molecular target: T23, AMPK-alpha2 (Homo sapiens, UniProt P54646); test: KinomeScan; type: binding; conditions: read-out: % control
T23 construct: purchased DiscoveRx KINOMEscan

[25] = molecular target: T24, HASPIN (Homo sapiens, UniProt Q8TF76); test: KinomeScan; type: binding; conditions: read-out: % control
T24 construct: purchased DiscoveRx KINOMEscan

[26] = molecular target: T25, FLT3(K663Q) (Homo sapiens, UniProt P36888, K663Q); test: KinomeScan; type: binding; conditions: read-out: % control
T25 construct: purchased DiscoveRx KINOMEscan

[27] = molecular target: T26, TRKC (Homo sapiens, UniProt Q16288); test: KinomeScan; type: binding; conditions: read-out: % control
T26 construct: purchased DiscoveRx KINOMEscan

[28] = molecular target: T27, DMPK2 (Homo sapiens, UniProt Q6DT37); test: KinomeScan; type: binding; conditions: read-out: % control
T27 construct: purchased DiscoveRx KINOMEscan

[29] = molecular target: T28, ABL1(H396P)-nonphosphorylated (Homo sapiens, UniProt P00519, H396P); test: KinomeScan; type: binding; conditions: read-out: % control
T28 construct: purchased DiscoveRx KINOMEscan

[30] = molecular target: T29, PIP5K2C (Homo sapiens, UniProt Q8TBX8); test: KinomeScan; type: binding; conditions: read-out: % control
T29 construct: purchased DiscoveRx KINOMEscan

[31] = molecular target: T30, CDC2L1 (Homo sapiens, UniProt P21127); test: KinomeScan; type: binding; conditions: read-out: % control
T30 construct: purchased DiscoveRx KINOMEscan

[32] = molecular target: T31, AKT2 (Homo sapiens, UniProt P31751); test: KinomeScan; type: binding; conditions: read-out: % control
T31 construct: purchased DiscoveRx KINOMEscan

[33] = molecular target: T32, CSF1R-autoinhibited (Homo sapiens, UniProt P07333); test: KinomeScan; type: binding; conditions: read-out: % control
T32 construct: purchased DiscoveRx KINOMEscan

[34] = molecular target: T33, GRK1 (Homo sapiens, UniProt Q15835); test: KinomeScan; type: binding; conditions: read-out: % control
T33 construct: purchased DiscoveRx KINOMEscan

[35] = molecular target: T34, MAP3K1 (Homo sapiens, UniProt Q13233); test: KinomeScan; type: binding; conditions: read-out: % control
T34 construct: purchased DiscoveRx KINOMEscan

[36] = molecular target: T35, EGFR(L858R) (Homo sapiens, UniProt P00533, L858R); test: KinomeScan; type: binding; conditions: read-out: % control
T35 construct: purchased DiscoveRx KINOMEscan

[37] = molecular target: T36, TBK1 (Homo sapiens, UniProt Q9UHD2); test: KinomeScan; type: binding; conditions: read-out: % control
T36 construct: purchased DiscoveRx KINOMEscan

[38] = molecular target: T37, MARK1 (Homo sapiens, UniProt Q9P0L2); test: KinomeScan; type: binding; conditions: read-out: % control
T37 construct: purchased DiscoveRx KINOMEscan

[39] = molecular target: T38, LIMK1 (Homo sapiens, UniProt P53667); test: KinomeScan; type: binding; conditions: read-out: % control
T38 construct: purchased DiscoveRx KINOMEscan

[40] = molecular target: T39, TXK (Homo sapiens, UniProt P42681); test: KinomeScan; type: binding; conditions: read-out: % control
T39 construct: purchased DiscoveRx KINOMEscan

[41] = molecular target: T40, TNIK (Homo sapiens, UniProt Q9UKE5); test: KinomeScan; type: binding; conditions: read-out: % control
T40 construct: purchased DiscoveRx KINOMEscan

[42] = molecular target: T41, DRAK2 (Homo sapiens, UniProt O94768); test: KinomeScan; type: binding; conditions: read-out: % control
T41 construct: purchased DiscoveRx KINOMEscan

[43] = molecular target: T42, CHEK1 (Homo sapiens, UniProt O14757); test: KinomeScan; type: binding; conditions: read-out: % control
T42 construct: purchased DiscoveRx KINOMEscan

T40 sequence (Q9UKE5 whole entry): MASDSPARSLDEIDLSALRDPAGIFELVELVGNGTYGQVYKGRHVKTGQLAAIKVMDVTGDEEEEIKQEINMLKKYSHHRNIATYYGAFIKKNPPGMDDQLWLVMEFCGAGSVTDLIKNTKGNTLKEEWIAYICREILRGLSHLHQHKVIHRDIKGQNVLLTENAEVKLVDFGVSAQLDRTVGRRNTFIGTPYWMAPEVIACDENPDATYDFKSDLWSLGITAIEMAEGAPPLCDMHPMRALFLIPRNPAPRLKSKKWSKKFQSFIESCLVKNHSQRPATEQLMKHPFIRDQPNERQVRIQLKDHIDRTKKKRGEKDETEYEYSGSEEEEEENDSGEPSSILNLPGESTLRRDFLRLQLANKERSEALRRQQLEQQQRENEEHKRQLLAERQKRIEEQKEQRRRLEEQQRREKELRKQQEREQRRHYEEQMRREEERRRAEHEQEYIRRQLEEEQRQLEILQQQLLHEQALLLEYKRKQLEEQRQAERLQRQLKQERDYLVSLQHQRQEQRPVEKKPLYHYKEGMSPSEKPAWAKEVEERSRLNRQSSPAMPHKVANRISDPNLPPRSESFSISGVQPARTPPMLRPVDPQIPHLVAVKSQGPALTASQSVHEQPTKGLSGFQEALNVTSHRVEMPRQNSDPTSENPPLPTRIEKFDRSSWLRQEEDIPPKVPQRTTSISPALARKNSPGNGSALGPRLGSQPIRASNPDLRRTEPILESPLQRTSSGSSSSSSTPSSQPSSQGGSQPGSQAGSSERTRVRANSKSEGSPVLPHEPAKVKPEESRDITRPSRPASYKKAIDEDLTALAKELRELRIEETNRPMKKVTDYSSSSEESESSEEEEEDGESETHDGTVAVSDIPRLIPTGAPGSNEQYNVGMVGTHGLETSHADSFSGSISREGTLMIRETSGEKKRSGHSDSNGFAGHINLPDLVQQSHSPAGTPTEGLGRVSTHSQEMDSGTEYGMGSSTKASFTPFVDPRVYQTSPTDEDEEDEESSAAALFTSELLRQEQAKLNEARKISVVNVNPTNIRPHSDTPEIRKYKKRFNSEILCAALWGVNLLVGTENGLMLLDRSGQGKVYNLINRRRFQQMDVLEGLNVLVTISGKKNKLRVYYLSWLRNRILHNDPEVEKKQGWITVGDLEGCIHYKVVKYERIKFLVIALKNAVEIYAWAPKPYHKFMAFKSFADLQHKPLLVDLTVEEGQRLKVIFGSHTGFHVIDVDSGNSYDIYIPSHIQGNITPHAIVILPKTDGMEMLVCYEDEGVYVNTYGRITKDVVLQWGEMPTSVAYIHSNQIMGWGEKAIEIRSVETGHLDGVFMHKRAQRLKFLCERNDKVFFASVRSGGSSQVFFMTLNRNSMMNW
T27 sequence (Q6DT37 whole entry): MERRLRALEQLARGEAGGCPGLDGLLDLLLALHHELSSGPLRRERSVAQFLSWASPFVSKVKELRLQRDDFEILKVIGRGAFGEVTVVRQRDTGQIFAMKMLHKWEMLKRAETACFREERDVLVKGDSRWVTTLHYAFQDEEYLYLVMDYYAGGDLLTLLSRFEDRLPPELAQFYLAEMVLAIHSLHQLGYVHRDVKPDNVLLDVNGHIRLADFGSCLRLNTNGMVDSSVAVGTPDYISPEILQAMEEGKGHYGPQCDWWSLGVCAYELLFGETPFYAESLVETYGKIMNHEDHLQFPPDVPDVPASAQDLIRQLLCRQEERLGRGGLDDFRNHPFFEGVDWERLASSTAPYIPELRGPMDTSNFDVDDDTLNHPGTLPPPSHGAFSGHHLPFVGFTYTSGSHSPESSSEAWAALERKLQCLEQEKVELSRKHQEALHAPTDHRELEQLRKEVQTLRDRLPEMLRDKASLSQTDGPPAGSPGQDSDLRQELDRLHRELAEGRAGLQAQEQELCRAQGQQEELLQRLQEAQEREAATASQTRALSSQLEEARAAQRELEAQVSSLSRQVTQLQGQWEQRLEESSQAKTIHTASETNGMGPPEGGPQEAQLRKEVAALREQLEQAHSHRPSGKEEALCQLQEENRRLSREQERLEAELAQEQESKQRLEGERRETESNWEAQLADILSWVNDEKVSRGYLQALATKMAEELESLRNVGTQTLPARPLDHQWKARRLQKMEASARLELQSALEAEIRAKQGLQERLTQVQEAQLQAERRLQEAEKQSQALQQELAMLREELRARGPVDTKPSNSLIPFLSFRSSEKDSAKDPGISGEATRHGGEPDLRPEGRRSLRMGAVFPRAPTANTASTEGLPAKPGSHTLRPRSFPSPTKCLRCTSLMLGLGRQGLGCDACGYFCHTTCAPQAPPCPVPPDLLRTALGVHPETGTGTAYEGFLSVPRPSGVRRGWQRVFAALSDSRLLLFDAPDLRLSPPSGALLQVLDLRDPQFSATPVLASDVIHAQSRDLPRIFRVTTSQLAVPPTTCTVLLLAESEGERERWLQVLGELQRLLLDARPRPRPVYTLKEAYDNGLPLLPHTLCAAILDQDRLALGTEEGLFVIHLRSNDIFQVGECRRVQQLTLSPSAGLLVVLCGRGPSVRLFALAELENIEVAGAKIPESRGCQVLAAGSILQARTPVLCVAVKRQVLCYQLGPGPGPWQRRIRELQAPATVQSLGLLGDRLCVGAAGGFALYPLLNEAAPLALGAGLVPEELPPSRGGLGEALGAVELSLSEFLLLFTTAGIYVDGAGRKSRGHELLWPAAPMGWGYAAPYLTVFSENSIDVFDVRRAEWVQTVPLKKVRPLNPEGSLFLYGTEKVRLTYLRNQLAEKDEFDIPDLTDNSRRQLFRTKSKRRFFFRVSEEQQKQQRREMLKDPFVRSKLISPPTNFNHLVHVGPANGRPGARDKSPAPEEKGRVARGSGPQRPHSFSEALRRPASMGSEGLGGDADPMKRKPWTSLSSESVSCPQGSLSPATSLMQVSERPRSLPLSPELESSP
T16 sequence (O15146 24-869): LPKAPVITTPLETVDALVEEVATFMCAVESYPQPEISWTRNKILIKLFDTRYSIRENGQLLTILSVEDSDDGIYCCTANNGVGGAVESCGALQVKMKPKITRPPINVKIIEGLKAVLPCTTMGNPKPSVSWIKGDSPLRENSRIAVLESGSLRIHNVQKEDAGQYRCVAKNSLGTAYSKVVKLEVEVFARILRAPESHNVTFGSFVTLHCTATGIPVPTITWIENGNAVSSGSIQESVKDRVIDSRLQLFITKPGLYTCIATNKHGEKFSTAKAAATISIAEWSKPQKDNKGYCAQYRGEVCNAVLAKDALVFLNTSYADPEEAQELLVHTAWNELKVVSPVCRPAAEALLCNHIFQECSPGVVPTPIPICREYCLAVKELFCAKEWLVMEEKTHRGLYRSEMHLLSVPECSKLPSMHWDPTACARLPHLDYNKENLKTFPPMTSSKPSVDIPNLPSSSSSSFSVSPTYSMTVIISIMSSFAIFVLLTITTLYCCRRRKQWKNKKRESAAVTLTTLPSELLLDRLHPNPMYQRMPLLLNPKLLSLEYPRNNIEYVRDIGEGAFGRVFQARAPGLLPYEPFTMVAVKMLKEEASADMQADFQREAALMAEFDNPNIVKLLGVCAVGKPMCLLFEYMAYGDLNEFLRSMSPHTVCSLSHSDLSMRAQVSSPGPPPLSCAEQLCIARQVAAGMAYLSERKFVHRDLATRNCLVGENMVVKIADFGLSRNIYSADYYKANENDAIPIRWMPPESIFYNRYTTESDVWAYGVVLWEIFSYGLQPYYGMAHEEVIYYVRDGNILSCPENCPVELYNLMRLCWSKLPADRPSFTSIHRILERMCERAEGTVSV
T2 sequence (P80192 whole entry): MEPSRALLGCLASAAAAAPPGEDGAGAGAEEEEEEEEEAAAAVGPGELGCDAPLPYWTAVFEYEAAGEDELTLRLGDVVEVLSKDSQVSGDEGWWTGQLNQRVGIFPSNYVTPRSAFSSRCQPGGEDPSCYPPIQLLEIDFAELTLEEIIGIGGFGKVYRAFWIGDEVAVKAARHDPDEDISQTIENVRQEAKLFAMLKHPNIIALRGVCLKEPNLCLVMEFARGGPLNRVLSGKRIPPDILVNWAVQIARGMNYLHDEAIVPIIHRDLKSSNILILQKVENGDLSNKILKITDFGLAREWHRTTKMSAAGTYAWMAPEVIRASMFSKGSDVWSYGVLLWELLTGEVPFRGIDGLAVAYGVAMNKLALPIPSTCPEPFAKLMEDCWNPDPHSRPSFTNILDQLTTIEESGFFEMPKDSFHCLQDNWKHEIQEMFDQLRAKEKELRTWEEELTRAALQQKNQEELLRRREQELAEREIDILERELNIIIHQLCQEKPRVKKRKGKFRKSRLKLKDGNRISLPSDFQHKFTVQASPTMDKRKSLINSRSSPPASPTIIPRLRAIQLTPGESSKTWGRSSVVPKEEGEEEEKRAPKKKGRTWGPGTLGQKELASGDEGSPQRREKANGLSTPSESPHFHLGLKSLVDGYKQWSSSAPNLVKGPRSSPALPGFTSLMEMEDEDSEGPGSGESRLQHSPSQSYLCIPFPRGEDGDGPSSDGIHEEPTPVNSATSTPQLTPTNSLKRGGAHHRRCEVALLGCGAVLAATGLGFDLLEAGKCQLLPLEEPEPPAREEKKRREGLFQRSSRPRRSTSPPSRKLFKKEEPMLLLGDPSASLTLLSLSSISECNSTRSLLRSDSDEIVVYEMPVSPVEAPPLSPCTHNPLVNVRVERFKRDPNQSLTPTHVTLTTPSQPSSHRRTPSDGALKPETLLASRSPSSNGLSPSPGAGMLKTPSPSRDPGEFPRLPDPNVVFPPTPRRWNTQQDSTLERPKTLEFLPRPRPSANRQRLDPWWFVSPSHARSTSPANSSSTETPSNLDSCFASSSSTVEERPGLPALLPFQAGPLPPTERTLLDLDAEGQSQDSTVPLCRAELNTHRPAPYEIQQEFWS

C=CC(=O)N1CCC[C@@H](n2nc(-c3ccc(OCc4cccc(C)n4)c(Cl)c3)c3c(N)ncnc32)C1 [CHMFL-EGFR-26]
remaining binding at 1 µM [1]: 99% | remaining binding at 1 µM [2]: 99% | remaining binding at 1 µM [3]: 81% | remaining binding at 1 µM [4]: 97% | remaining binding at 1 µM [5]: 97% | remaining binding at 1 µM [6]: 100% | remaining binding at 1 µM [7]: 77% | remaining binding at 1 µM [8]: 62% | remaining binding at 1 µM [9]: 100% | remaining binding at 1 µM [10]: 11% | remaining binding at 1 µM [11]: 93% | remaining binding at 1 µM [12]: 87% | remaining binding at 1 µM [13]: 80% | remaining binding at 1 µM [14]: 100% | remaining binding at 1 µM [15]: 100% | remaining binding at 1 µM [16]: 84% | remaining binding at 1 µM [17]: 77% | remaining binding at 1 µM [18]: 96% | remaining binding at 1 µM [19]: 96% | IC50 [20]: 2800 nM | remaining binding at 1 µM [21]: 95% | remaining binding at 1 µM [22]: 81% | remaining binding at 1 µM [23]: 100% | remaining binding at 1 µM [24]: 90% | remaining binding at 1 µM [25]: 100% | remaining binding at 1 µM [26]: 97% | remaining binding at 1 µM [27]: 100% | remaining binding at 1 µM [28]: 28% | remaining binding at 1 µM [29]: 100% | remaining binding at 1 µM [30]: 85% | remaining binding at 1 µM [31]: 86% | remaining binding at 1 µM [32]: 86% | remaining binding at 1 µM [33]: 100% | remaining binding at 1 µM [34]: 88% | remaining binding at 1 µM [35]: 82% | remaining binding at 1 µM [36]: 2.5% | remaining binding at 1 µM [37]: 100% | remaining binding at 1 µM [38]: 100% | remaining binding at 1 µM [39]: 99% | remaining binding at 1 µM [40]: 15% | remaining binding at 1 µM [41]: 11% | remaining binding at 1 µM [42]: 91% | remaining binding at 1 µM [43]: 100%
